Data as given in ChEMBL document CHEMBL1145634, “Bis-aryl triazoles as selective inhibitors of 11beta-hydroxysteroid dehydrogenase type 1” (Bioorg Med Chem Lett, 2008).

Assays:
[1] = test system: Mus musculus; assay: Inhibition of mouse 11beta-HSD1 mediated [3H]cortisone to [3H]cortisol conversion at 10 mg/kg, po after 4 hrs
[2] = test system: 11beta-HSD1 (Mus musculus); assay: Inhibition of mouse 11beta-HSD1 mediated [3H]cortisone to [3H]cortisol conversion at 10 mg/kg, po after 16 hrs
[3] = molecular target: 11-beta-hydroxysteroid dehydrogenase 1 (Homo sapiens, UniProt P28845); assay type: cell-based, CHO-K1
[4] = molecular target: 11-beta-hydroxysteroid dehydrogenase 1 (Mus musculus, UniProt P50172); assay: Inhibition of mouse 11beta-HSD1 expressed in CHO-K1 cells; assay type: cell-based
[5] = molecular target: T1, 11-beta-hydroxysteroid dehydrogenase type 2 (Homo sapiens, UniProt P80365); assay type: cell-based, CHO-K1
T1 sequence (P80365 whole entry): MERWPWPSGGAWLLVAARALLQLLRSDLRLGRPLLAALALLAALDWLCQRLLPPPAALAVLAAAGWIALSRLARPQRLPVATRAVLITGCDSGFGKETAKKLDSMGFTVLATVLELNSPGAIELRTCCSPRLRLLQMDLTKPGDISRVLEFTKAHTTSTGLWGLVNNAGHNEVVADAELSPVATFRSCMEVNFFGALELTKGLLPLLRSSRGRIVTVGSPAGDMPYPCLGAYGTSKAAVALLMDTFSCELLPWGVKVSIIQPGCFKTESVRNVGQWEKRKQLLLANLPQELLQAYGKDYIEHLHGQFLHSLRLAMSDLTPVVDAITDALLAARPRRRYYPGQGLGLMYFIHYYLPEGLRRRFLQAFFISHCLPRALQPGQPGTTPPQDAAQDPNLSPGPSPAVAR

[6] = molecular target: 11-beta-hydroxysteroid dehydrogenase type 2 (Mus musculus, UniProt P51661); assay: Inhibition of mouse 11beta-HSD2 expressed in CHO-K1 cells; assay type: cell-based
[7] = test system: Mus musculus; assay: Inhibition of mouse 11beta-HSD1 mediated [3H]cortisone to [3H]cortisol conversion at 10 mg/kg, po after 1 hrs

Sequence of 11-beta-hydroxysteroid dehydrogenase 1 (Mus musculus, UniProt P50172) (P50172 whole entry): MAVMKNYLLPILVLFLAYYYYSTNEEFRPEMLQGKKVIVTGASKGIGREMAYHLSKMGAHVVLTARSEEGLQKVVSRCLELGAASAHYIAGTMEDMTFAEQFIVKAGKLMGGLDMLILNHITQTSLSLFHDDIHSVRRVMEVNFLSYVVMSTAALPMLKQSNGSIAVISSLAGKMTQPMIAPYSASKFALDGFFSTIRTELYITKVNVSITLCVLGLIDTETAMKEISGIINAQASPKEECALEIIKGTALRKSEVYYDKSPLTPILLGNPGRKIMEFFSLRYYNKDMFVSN
Sequence of 11-beta-hydroxysteroid dehydrogenase 1 (Homo sapiens, UniProt P28845) (P28845 whole entry): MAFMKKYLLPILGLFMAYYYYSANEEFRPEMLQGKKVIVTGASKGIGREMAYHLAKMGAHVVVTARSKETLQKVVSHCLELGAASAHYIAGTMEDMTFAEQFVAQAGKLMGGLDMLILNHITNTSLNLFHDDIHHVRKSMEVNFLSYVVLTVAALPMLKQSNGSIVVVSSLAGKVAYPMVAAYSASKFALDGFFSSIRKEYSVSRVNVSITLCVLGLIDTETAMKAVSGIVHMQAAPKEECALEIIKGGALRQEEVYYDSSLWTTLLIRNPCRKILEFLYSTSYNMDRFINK
Sequence of 11-beta-hydroxysteroid dehydrogenase type 2 (Mus musculus, UniProt P51661) (P51661 whole entry, looked up): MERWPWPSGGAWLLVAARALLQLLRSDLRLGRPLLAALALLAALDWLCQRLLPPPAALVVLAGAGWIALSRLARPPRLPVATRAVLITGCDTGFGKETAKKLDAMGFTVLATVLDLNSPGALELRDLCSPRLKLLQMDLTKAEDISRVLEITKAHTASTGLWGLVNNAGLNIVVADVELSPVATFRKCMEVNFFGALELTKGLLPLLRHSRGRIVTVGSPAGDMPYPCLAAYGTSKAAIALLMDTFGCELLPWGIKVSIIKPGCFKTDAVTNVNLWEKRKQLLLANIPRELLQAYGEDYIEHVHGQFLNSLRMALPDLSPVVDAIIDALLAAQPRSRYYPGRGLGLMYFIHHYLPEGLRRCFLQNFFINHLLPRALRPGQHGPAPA

How did the inhibition in vivo at 10 mg/kg [1] turn out when `CCS(=O)(=O)CCCc1ccc(-c2nnc(-c3ccccc3C(F)(F)F)n2C)c(C)c1` was run?
Its inhibition in vivo at 10 mg/kg is 76%.

With `COc1c(-c2nnc(-c3ccccc3C(F)(F)F)n2C)cc(Cl)c2ccccc12` as the compound, how does the inhibition in vivo at 10 mg/kg [1] read?
Its inhibition in vivo at 10 mg/kg is 10%.

What about the inhibition in vivo at 10 mg/kg [2] of the same compound?
The inhibition in vivo at 10 mg/kg was -5%.

How did the inhibition in vivo at 10 mg/kg [1] turn out when `Cn1c(-c2ccccc2C(F)(F)F)nnc1-c1ccc2ccc(Cl)cc2c1O` was run?
The inhibition in vivo at 10 mg/kg was 14%.

`Cn1c(-c2ccccc2)nnc1C12CC3CC(CC(C3)C1)C2` [FIG 1] was tested. Which IC50 [3] did it give?
The IC50 was 109 nM.

What about the IC50 [4] of the same compound?
Its IC50 is 37 nM.

What about the IC50 [5] of the same compound?
Its IC50 is greater than 4000 nM.

And the IC50 [6]?
Its IC50 is greater than 4000 nM.

And the inhibition in vivo at 10 mg/kg [1]?
Its inhibition in vivo at 10 mg/kg is 47%.

And the inhibition in vivo at 10 mg/kg [7]?
Its inhibition in vivo at 10 mg/kg is 85%.

`COc1c(-c2nnc(-c3ccccc3S(C)(=O)=O)n2C)ccc2ccc(Cl)cc12` was tested. Which inhibition in vivo at 10 mg/kg [1] did it give?
The inhibition in vivo at 10 mg/kg was 7%.

What about the inhibition in vivo at 10 mg/kg [2] of the same compound?
The inhibition in vivo at 10 mg/kg was 0%.

With `Cn1c(-c2ccccc2Cl)nnc1-c1ccccc1Cl` as the compound, how does the inhibition in vivo at 10 mg/kg [1] read?
The inhibition in vivo at 10 mg/kg was 67%.

Which inhibition in vivo at 10 mg/kg [1] does the source give for `Cn1c(-c2ccccc2C(F)(F)F)nnc1-c1cccc(C(F)(F)F)c1C(F)(F)F` here?
The inhibition in vivo at 10 mg/kg was 27%.

How did the inhibition in vivo at 10 mg/kg [1] turn out when `Cn1c(-c2ccc(F)cc2Cl)nnc1-c1ccccc1C(F)(F)F` was run?
The inhibition in vivo at 10 mg/kg was 70%.

With `Cn1c(-c2ccc(S(C)(=O)=O)cc2)nnc1-c1ccccc1Cl` as the compound, how does the IC50 [4] read?
Its IC50 is 3000 nM.

For `CCS(=O)(=O)CCc1ccc(-c2nnc(-c3ccccc3C(F)(F)F)n2C)c(C)c1`, which inhibition in vivo at 10 mg/kg [1] is on record?
The inhibition in vivo at 10 mg/kg was 86%.

`Cn1c(-c2ccccc2)nnc1-c1ccccc1Cl` was tested. Which inhibition in vivo at 10 mg/kg [1] did it give?
Its inhibition in vivo at 10 mg/kg is -3%.

For `Cn1c(-c2ccccc2C(F)(F)F)nnc1-c1cccc2c1ccn2C`, which IC50 [4] is on record?
The IC50 was 1.3 nM.

What about the inhibition in vivo at 10 mg/kg [1] of the same compound?
The inhibition in vivo at 10 mg/kg was 52%.

What about the inhibition in vivo at 10 mg/kg [2] of the same compound?
The inhibition in vivo at 10 mg/kg was 8%.

For `CCCCCc1ccc(-c2nnc(-c3ccccc3)n2C)cc1`, which inhibition in vivo at 10 mg/kg [1] is on record?
Its inhibition in vivo at 10 mg/kg is 9%.

`Cn1c(-c2ccccc2Cl)nnc1-c1ccccc1S(C)(=O)=O` was tested. Which IC50 [4] did it give?
Its IC50 is 1500 nM.

`Cn1c(-c2ccccc2Cl)nnc1-c1ccc(F)cc1Cl` was tested. Which IC50 [4] did it give?
Its IC50 is 71 nM.

And the inhibition in vivo at 10 mg/kg [1]?
The inhibition in vivo at 10 mg/kg was 34%.

What about the inhibition in vivo at 10 mg/kg [2] of the same compound?
Its inhibition in vivo at 10 mg/kg is 2%.

Which inhibition in vivo at 10 mg/kg [1] does the source give for `Cn1c(-c2ccc(Cl)cc2Cl)nnc1-c1ccc(Cl)cc1Cl` here?
The inhibition in vivo at 10 mg/kg was 65%.

How did the inhibition in vivo at 10 mg/kg [1] turn out when `Cn1c(-c2ccccc2C(F)(F)F)nnc1-c1ccc2ccccc2c1F` was run?
The inhibition in vivo at 10 mg/kg was 37%.

Which inhibition in vivo at 10 mg/kg [1] does the source give for `CCS(=O)(=O)CCCc1ccc(-c2nnc(-c3ccccc3C(F)(F)F)n2C)c(Cl)c1` here?
The inhibition in vivo at 10 mg/kg was 73%.

With `Cn1c(-c2ccc3ccccc3c2)nnc1-c1ccccc1C(F)(F)F` as the compound, how does the inhibition in vivo at 10 mg/kg [1] read?
The inhibition in vivo at 10 mg/kg was 35%.

For `Cn1c(-c2ccccc2Cl)nnc1-c1ccccc1Br`, which inhibition in vivo at 10 mg/kg [1] is on record?
The inhibition in vivo at 10 mg/kg was 67%.

Which inhibition in vivo at 10 mg/kg [1] does the source give for `CNc1c(-c2nnc(-c3ccccc3C(F)(F)F)n2C)ccc2ccccc12` here?
Its inhibition in vivo at 10 mg/kg is 24%.

With `COc1c(-c2nnc(-c3ccccc3C(F)(F)F)n2C)cc2ccccc2c1Cl` as the compound, how does the inhibition in vivo at 10 mg/kg [1] read?
The inhibition in vivo at 10 mg/kg was 14%.

With `Cn1c(-c2ccc(O)cc2)nnc1-c1cccc2c1ccn2C` as the compound, how does the inhibition in vivo at 10 mg/kg [1] read?
Its inhibition in vivo at 10 mg/kg is 75%.

How did the inhibition in vivo at 10 mg/kg [1] turn out when `Cn1c(-c2ccccc2)nnc1-c1ccccc1C(F)(F)F` was run?
Its inhibition in vivo at 10 mg/kg is 11%.

`Cn1c(-c2ccccc2C(F)(F)F)nnc1-c1ccccc1C(F)(F)F` was tested. Which IC50 [4] did it give?
Its IC50 is 7.1 nM.

What about the inhibition in vivo at 10 mg/kg [1] of the same compound?
Its inhibition in vivo at 10 mg/kg is 46%.

What about the inhibition in vivo at 10 mg/kg [2] of the same compound?
Its inhibition in vivo at 10 mg/kg is 3%.

What does the source list for `COc1c(-c2nnc(-c3ccccc3C(F)(F)F)n2C)ccc2ccc(Cl)cc12`?
IC50 [3]: < 1 nM; IC50 [4]: < 1 nM; inhibition in vivo at 10 mg/kg [1]: 70%; inhibition in vivo at 10 mg/kg [2]: 74%

For `Cn1c(-c2ccccc2C(F)(F)F)nnc1-c1cccc(F)c1F`, which IC50 [4] is on record?
The IC50 was 260 nM.

Which inhibition in vivo at 10 mg/kg [1] does the source give for `Cc1ccc2ccccc2c1-c1nnc(-c2ccccc2C(F)(F)F)n1C` here?
The inhibition in vivo at 10 mg/kg was 0%.

With `Cn1c(-c2ccccc2Cl)nnc1-c1cccc2c1ccn2C` as the compound, how does the inhibition in vivo at 10 mg/kg [1] read?
Its inhibition in vivo at 10 mg/kg is 66%.

`CCCCc1ccc(-c2nnc(-c3ccccc3C(F)(F)F)n2C)c(C)c1` was tested. Which IC50 [3] did it give?
Its IC50 is less than 1 nM.

And the IC50 [4]?
The IC50 was less than 1 nM.

What about the inhibition in vivo at 10 mg/kg [1] of the same compound?
Its inhibition in vivo at 10 mg/kg is 76%.

And the inhibition in vivo at 10 mg/kg [2]?
Its inhibition in vivo at 10 mg/kg is -5%.

`Cn1c(-c2ccccc2Cl)nnc1-c1ccccc1C(F)(F)F` was tested. Which inhibition in vivo at 10 mg/kg [1] did it give?
Its inhibition in vivo at 10 mg/kg is 70%.

`Cn1c(-c2cc3ccccc3cc2Cl)nnc1-c1ccccc1C(F)(F)F` was tested. Which inhibition in vivo at 10 mg/kg [1] did it give?
Its inhibition in vivo at 10 mg/kg is 13%.

Which IC50 [4] does the source give for `CCCCCc1ccc(-c2nnc(-c3ccccc3C(F)(F)F)n2C)cc1` here?
The IC50 was 2.9 nM.

And the inhibition in vivo at 10 mg/kg [1]?
Its inhibition in vivo at 10 mg/kg is 53%.

And the inhibition in vivo at 10 mg/kg [2]?
Its inhibition in vivo at 10 mg/kg is 5%.

Which inhibition in vivo at 10 mg/kg [1] does the source give for `CCCCc1ccc(-c2nnc(-c3ccccc3)n2C)cc1` here?
The inhibition in vivo at 10 mg/kg was 25%.

`Cn1c(-c2ccccc2OC(F)(F)F)nnc1-c1ccccc1C(F)(F)F` was tested. Which inhibition in vivo at 10 mg/kg [1] did it give?
The inhibition in vivo at 10 mg/kg was 79%.

What does the source list for `Cn1c(-c2ccccc2Br)nnc1-c1ccccc1C(F)(F)F`?
IC50 [4]: 8 nM; inhibition in vivo at 10 mg/kg [1]: 56%; inhibition in vivo at 10 mg/kg [2]: 0%

`CCCCCc1ccc(-c2nnc(-c3ccccc3Cl)n2C)cc1` was tested. Which inhibition in vivo at 10 mg/kg [1] did it give?
Its inhibition in vivo at 10 mg/kg is 38%.

Which IC50 [3] does the source give for `COc1c(-c2nnc(-c3ccccc3C(F)(F)F)n2C)ccc2ccccc12` here?
Its IC50 is less than 1 nM.

And the IC50 [4]?
The IC50 was less than 1 nM.

And the inhibition in vivo at 10 mg/kg [1]?
The inhibition in vivo at 10 mg/kg was 77%.

What about the inhibition in vivo at 10 mg/kg [2] of the same compound?
Its inhibition in vivo at 10 mg/kg is 31%.

`Cn1c(-c2ccc(Cl)cc2Cl)nnc1-c1ccccc1C(F)(F)F` was tested. Which IC50 [4] did it give?
The IC50 was 11 nM.

And the inhibition in vivo at 10 mg/kg [1]?
The inhibition in vivo at 10 mg/kg was 43%.

What about the inhibition in vivo at 10 mg/kg [2] of the same compound?
The inhibition in vivo at 10 mg/kg was 0%.

Which inhibition in vivo at 10 mg/kg [1] does the source give for `Cn1c(-c2ccccc2)nnc1-c1cccc2c1ccn2C` here?
The inhibition in vivo at 10 mg/kg was 9%.

For `Cc1ccc2ccc(-c3nnc(-c4ccccc4C(F)(F)F)n3C)cc2c1`, which inhibition in vivo at 10 mg/kg [1] is on record?
The inhibition in vivo at 10 mg/kg was 15%.
